Test results from patent US12551429B2, “Oral care complexes and compositions” (Colgate-Palmolive Company, priority 2021, dated 2026).

Tests used:
[1] = Knoop hardness repair (% HR) of acid-etched human enamel after treatment and remineralization
Protocol: KHN is determined using the Knoop microhardness tester. A baseline measurement is taken on a sound enamel sample without treatment (KHN0), on an acid-etched enamel sample (KHNe), and on an acid-etched enamel sample after treatment (KHNt). Each KHN measurement is the average of 5 indentations made on the same specimen at a force of 0.05 kg for 15 seconds. A value for Percentage of Hardness Repair (% HR) is calculated according to the following formula: % HR=(KHNt−KHNe)/(KHN0−KHNe)×100
Etched enamel samples are prepared by treatment with 1% aqueous citric acid (pH 3.6) for 10 minutes, followed by rinsing with deionized water. […]

[2] = Surface roughness change (% R) of etched human enamel, 3D laser scanning confocal microscope; details: Example 2, % R=(Rt−Re)/(Re)×100, four days of treatment, negative = smoother
Excerpt: Human molar teeth are obtained, and the root portion of the molar is removed. The crown of the molar is cut longitudinally into slices 2 mm thick using a water-cooled low-speed diamond saw. The human enamel samples are then mounted in acrylic resin. The embedded samples are grinded and polished with a sequential series of wet 400 to 4000 grit silicon carbide papers and nylon adhesive backed discs with 0.25 micron diamond or colloidal silica coating. The polished slices are rinsed thoroughly with distilled water three times, sonicated in a water bath for five minutes, then rinsed again and allowed to air dry.
(§1) Etched enamel samples are prepared by treatment with 1% aqueous citric acid (pH 3.6) for 10 minutes, followed by rinsing with deionized water.
Etched human enamel samples are treated with 50 microliters of polyelectrolyte solutions A-F, or with control solutions, for ten minutes at room temperature. […]
In addition, surface roughness and morphology are evaluated using a 3D laser scanning confocal microscope. […] Roughness is therefore measured in units of micrometers. Values for roughness of the acid etched enamel sample (Re) and for the acid-etched enamel sample after treatment (Rt) are determined. Percentage of roughness (% R) is calculated as follows: % R=(Rt−Re)/(Re)×100

[3] = Knoop hardness repair (% HR) of acid-etched bovine enamel after treatment and remineralization; details: for % HR (Percentage Hardness Repair): bovine enamel, 40 microliters
Protocol: Bovine enamel blocks are obtained from sound bovine incisors without defects. The labial surface of the bovine teeth is cut to provide enamel specimens of about 3×3×2 mm in size. The enamel layer is about 1 mm thick and the dentin left in the specimen is about 1 mm thick.
as §1
Etched bovine enamel samples are treated with 50 microliters of polyelectrolyte solutions A-F, or with sodium fluoride solution or water, for ten minutes at room temperature. The samples are then rinsed with deionized water and then they are immersed in 50 mL of Remineralization Solution (0.2205 g/L CaCl2·2H2O, 0.1225 g/L KH2PO4, 9.6915 g/L KCl and 4.766 g/L HEPEs buffer, pH adjusted to 7 with NaOH) overnight at 37° C. The enamel samples are then rinsed with deionized water for 50 seconds and then air dried.
Knoop Hardness (KHN) is a measure of hardness of a material calculated by measuring the indentation produced by a diamond tip that is pressed onto the surface of a sample. Using a calibrated microscope, the area of the impression can be determined, and from the area of the indentation (D) in […], and the applied load (F) in kilograms force, the Knoop Hardness is calculated as: KHN=14.229(F/D^2). Knoop hardness has units of kgf/mm^2.
KHN is determined using the Knoop microhardness tester. […] A value for Percentage of Hardness Repair (% HR) is calculated according to the following formula: % HR=(KHNt−KHNe)/(KHN0−KHNe)×100
Bovine and human enamel blocks are prepared and treated with polyelectrolyte test solutions as described in Examples 1 and 2, respectively, except that 40 microliters of the polyelectrolyte solution are applied to the etched enamel surface, instead of 50 microliters. Koop Hardness (KHN) and Percentage Hardness Repair (% HR) are determined as described in Examples 1 and 2. […]

[4] = Step height repair of etched bovine enamel blocks (sound/damaged/repaired method, Keyence microscope)
Protocol: (§2) The left half of the block (“sound”) is covered using an acid-resistant nail polish, which is then allowed to air dry. The right half of the block (“damaged” and “repaired”) is then treated with 1% citric acid (pH 3.6) for ten minutes to etch the surface. After the treatment, the surface of the block is rinsed with deionized water. The top right corner of the block (“damaged”) is then covered with the same acid-resistant nail polish and air dried. The test formulation is then applied to the bottom right corner of the block (“repaired”), for example, for a ten-minute treatment, followed by rinsing with deionized water. Following the treatment, the enamel blocks are immersed in a Remineralization Solution (0.2205 g/L CaCl2·2H2O, 0.1225 g/L KH2PO4, 9.6915 g/L KCl and 4.766 g/L HEPEs buffer, pH adjusted to 7 with NaOH) overnight at 37° C., and the process repeated for 2-4 days (the blocks immersed daily in fresh remineralization solution). Following this, the blocks are removed, rinsed with deionized water and air dried. The nail polish covers are then removed using acetone solvent, and the surface of the enamel blocks is visualized, for example, by light microscopy, confocal laser scanning microscopy, scanning probe microscopy, or scanning electron microscopy. […]
(§3) Enamel repair is also evaluated using the method described in Example 4. […]

[5] = Gloss recovery (% GR) of acid-etched enamel, Novo-Curve glossmeter; parameters: species or system bovine; details: Example 5
Protocol: Enamel repair is also evaluated using the method described in Example 4. A Keyence microscope is used to capture the surface morphology and to measure the step height of the treated samples. A Phenom ProX Desktop scanning electron microscope is used to observe the repaired enamel crystals. Bovine enable blocks are treated with either water, the sodium fluoride solution, or the 10 mg/mL ePL+0.06 mg/mL malic acid solution (Solution E above).
The effect of treatments on enamel appearance is also investigated by measuring the surface gloss and observing the surface under a microscope. The gloss values are measured using a Novo-Curve glossmeter. A glossmeter provides a quantifiable way of measuring gloss intensity, and the measurement relates to the amount of reflected light from a black glass standard with a defined refractive index. The ratio of reflected light for a test specimen, compared to the ratio for the gloss standard, is recorded as gloss units (GU). A gloss measurement of >70 GU is considered high gloss, while medium gloss is 10-70 GU, and low gloss is <10 GU.
A baseline measurement is taken on a sound enamel sample without treatment (G0), on an acid-etched enamel sample (Ge), and on an acid-etched enamel sample after treatment (Gt). The percentage of gloss recovery (% GR) is calculated according to the following formula: % GR=(Gt−Ge)/(G0−Ge)×100.

[6] = Light microscopy of enamel surface morphology (sound/damaged/repaired method); details: Example 5; bovine enamel blocks
Protocol: as §2, §3

[7] = Scanning electron microscopy of enamel surface; details: Example 5; bovine enamel blocks
Protocol: as §2, §3

Row | SMILES | % HR (Percentage of Hardness Repair) ([1]; Example 2, 50 microliters for ten minutes, overnight remineralization, repeated daily for four days) [%] | % R (Percentage of roughness) [2] [%] | % HR (Percentage of Hardness Repair) ([3]; Example 1, bovine enamel etched with 1% citric acid, 50 microliters for ten minutes, Remineralization Solution overnight at 37° C.) [%] | % HR (Percentage Hardness Repair) ([3]; Example 3, solutions pH 7.0) [%] | % HR (Percentage Hardness Repair) ([3]; Example 5, solutions about pH 6.0, 1 day of treatment) [%] | % HR (Percentage Hardness Repair) ([1]; Example 3, 40 microliters, solutions pH 7.0, 4 days of treatments) [%] | restoration of enamel height in 3-D Keyence photomicrographs (FIG. 3) ([4]; Example 5) | % Repair (Step height) ([4]; Example 5, calculated from change in step height) [%] | % GR (percentage of gloss recovery) ([5]; 2 days of remineralization) [%] | surface gloss recovery, in words ([5]; after 2 days of remineralization) | surface morphology of the repaired side under the microscope (FIG. 2) [6] | repair of gaps or cracks in the enamel surface by scanning electron microscopy [7]
1 | O=C(O)CC(O)C(=O)O (stereo not drawn) [Malic acid, malic acid] | 19.8 | −1.6 |  |  |  |  |  |  |  |  |  | 
2 | [F-].[Na+] [NaF, sodium fluoride] |  |  | 27.9 | 35.9 | 41.0 | 49.3 | do not restore the enamel to the original height | 65.3 | 12.7 | slightly better than water treatment | a clear interface between “damaged” and “repaired” sides is observed | some healing
